Assay results reported in US10004828B2, “Self-assembled Fmoc-ff hydrogels” (Romat at Tel-Aviv University Ltd., priority 2005, dated 2018).
Like-named read-outs stand apart in the source and are kept apart here. Where a SMILES comes first, the peptide text is derived from it. The star is where a group is joined. Fmoc = O=C(OCC1c2ccccc2-c2ccccc21)*

Assays:
[1] = for G' (storage modulus): at 1 Hz
Method: Rheological measurements were performed on AR 2000 controlled stress rheometer (TA Instruments Ltd, Great Britain) operated in cone-plate mode (cone angles 1 and 4 with diameters of 60 and 40 mm, respectively). Small-amplitude oscillatory shear experiments (0.1-10 Hz) were performed within the linear viscoelastic limit. Frequency scans were performed at the lowest stress possible to prevent damage to the sample. The linearity of response was monitored continuously to ascertain linear viscoelasticity.
To study the biomechanical characteristics of the novel hydrogel, rheology measurements were performed.

[2] = HFIP stock, 5 mg/ml
Method: Determination of water percentage in the gel was done by washing a freshly formed hydrogel with water five times, each time for 15 minutes, followed by weighing the gel, lyophilizing it and weighing the remaining peptide aggregate.

in vitro = conditions: CHO cells seeded on the peptide hydrogel
Method: (§1) For cell growth in vitro experiments Chinese Hamster Ovary (CHO) cells were grown in Dulbecco's Modified Eagle Medium (DMEM) supplemented with 10% Fetal Calf Serum, 100 U/ml penicillin, 100 U/ml streptomycin and 2 mmol/liter L-glutamine (all from Beit Haemek, Israel). Cells were maintained at 37° C. in a humidified atmosphere containing 5% CO2. Sub-confluent cells were harvested by trypsinization, counted and diluted in the cells media to 1×10^5 cells/ml. The gel was washed three times with 0.5 ml water for 30 minutes at a time and was then left overnight in 0.5 ml DMEM. The DMEM was thereafter removed and 500 μl of CHO cells (5×10^4 cells) were added over the hydrogel. After a 24 hour incubation period at 37° C. the viability of the cells was determined using a MTT (3-(4,5-dimethylthiazolyl-2)-2,5-diphenyltetrazolium bromide) assay [Nowak et al., Nature 417, 424 (2002)].
(§2) In order to exploit whether the peptide-based hydrogel described herein can serve as a scaffold for tissue engineering applications, its biocompatibility was examined using cellular in vitro experiments. Chinese Hamster Ovary (CHO) cells were suspended above the hydrogel after its formation in a […]. After a one-day incubation period the cells were analyzed for viability.

[3] = test system: Chinese Hamster Ovary (CHO) cells; assay: in vitro
Method: as §1, §2

[4] = cited from earlier work
[5] = CHO cells on hydrogel from HFIP stock, one-day incubation

Row | Compound | storage modulus G' excess over loss modulus G'' ([1]; HFIP stock, final concentration 5 mg/ml (FIG. 3a)) | G' (storage modulus) ([1]; peptide concentration 5 mg/ml, solvent not stated) | G' (storage modulus) ([1]; peptide final concentration 1 mg/ml, stock solution solvent DMSO) | G' (storage modulus) ([1]; peptide final concentration 2 mg/ml, acetone stock solution) | G' (storage modulus) ([1]; peptide final concentration 5 mg/ml, stock solution solvent HFIP) | G' (storage modulus) ([1]; peptide final concentration 5 mg/ml, stock solution solvent HFIP, listed as Fmoc-diphenylalanine) | G' (storage modulus) ([1]; peptide final concentration 5 mg/ml, stock solution solvent acetone) | G' (storage modulus) ([1]; peptide final concentration 10 mg/ml, acetone stock solution (FIG. 3c)) | G' relative to that reported for other self-assembled peptide hydrogels ([1]; versus hydrogels formed without chemical cross linking) [fold] | hydrogel water content [2] | viability at 24 h (in vitro) [%] | cell morphology [3, 5] | rate of proliferation [3, 5] | cell growth on hydrogel compared with poly lysine ([3]; CHO cells, hydrogel from DMSO stock, final DMSO concentration 1%) | G' (storage modulus) ([4]; 5 mg/ml, Tris HCl buffer, at 1 Hz, reported value) [Pa] | G' (storage modulus) ([4]; 5 mg/ml, Tris HCl buffer, at 1 Hz, reported value, listed as PuraMatrix gel) | G' (storage modulus) ([4]; at 1 Hz frequency, concentration not given)
1 | O=C(N[C@@H](Cc1ccccc1)C(=O)N[C@@H](Cc1ccccc1)C(=O)O)OCC1c2ccccc2-c2ccccc21 [Fmoc-Phe-Phe, Fmoc-diphenylalanine] (Fmoc-Phe-Phe-OH) | about one order of magnitude | about 2×10^4 Pa | 1,000 Pa | about 2×10^3 Pa | 10,000 Pa | about 10^4 Pa | 10,000 Pa | about 2×10^4 Pa | 200 | greater than 99% | > 80 | normal cell morphology | normal rate of proliferation | effective matrix for cell growth |  |  | 
2 | [COCH3]-RADARADARADARADA-[CONH2] [RADA16 (Puramatrix)] |  |  |  |  |  |  |  |  |  |  |  |  |  |  | 50 | about 50 Pa | about 50 Pa
